Measured values taken from the NIST ThermoML archive (doi:10.1016/j.jct.2013.11.027).

Key:
[1] = xn = mol fraction of the nth substance listed; settings: 101 kPa, Liquid; for speed of sound: Sing-around technique in a fixed-path interferometer; for mass density: Vibrating tube method
[2] = refractive index (Na D-line) (dimensionless); xn = mol fraction of the nth substance listed; settings: 101 kPa, Liquid, Standard Abbe refractometry

CCCCCCn1cc[n+](C)c1.F[B-](F)(F)F [1-hexyl-3-methylimidazolium tetrafluoroborate] + C1CCOC1
Settings	mass density, 298.15 K [kg/m3]	mass density, 308.15 K [kg/m3]	mass density, 318.15 K [kg/m3]	refractive index, 298.15 K	refractive index, 308.15 K	refractive index, 318.15 K	speed of sound, 298.15 K [m/s]	speed of sound, 308.15 K [m/s]	speed of sound, 318.15 K [m/s]
[1], x1 = 0.0989	954.559	945.509	936.105	–	–	–	1306.3	1263.5	1221.2
[1], x1 = 0.2022	1005.23	996.175	987.171	–	–	–	1346.4	1308	1270.1
[1], x1 = 0.3014	1040.84	1032.56	1023.55	–	–	–	1379.6	1344.7	1310.1
[1], x1 = 0.3985	1066.08	1058.03	1049.53	–	–	–	1406.7	1374.4	1342.6
[1], x1 = 0.5109	1089.28	1081.23	1072.72	–	–	–	1431.3	1401.3	1371.8
[1], x1 = 0.5974	1103.2	1095.15	1087.75	–	–	–	1447	1418.5	1390.3
[1], x1 = 0.6974	1116.29	1109.24	1102.04	–	–	–	1462.8	1435.6	1408.7
[1], x1 = 0.8045	1128.3	1121.25	1114.44	–	–	–	1477.3	1451.1	1425.4
[1], x1 = 0.8865	1135.58	1128.53	1121.52	–	–	–	1486.9	1461.3	1436.2
[1], x1 = 1	1145.11	1137.71	1130.49	–	–	–	1496.7	1472	1447.7
[2], x1 = 0.0989	–	–	–	1.41416	1.41006	1.40595	–	–	–
[2], x1 = 0.2022	–	–	–	1.42016	1.41657	1.41275	–	–	–
[2], x1 = 0.3014	–	–	–	1.42373	1.42043	1.4171	–	–	–
[2], x1 = 0.3985	–	–	–	1.42607	1.42284	1.41964	–	–	–
[2], x1 = 0.5109	–	–	–	1.4279	1.42491	1.42175	–	–	–
[2], x1 = 0.5974	–	–	–	1.42888	1.42609	1.42305	–	–	–
[2], x1 = 0.6974	–	–	–	1.42974	1.427	1.42418	–	–	–
[2], x1 = 0.8045	–	–	–	1.4305	1.42774	1.42511	–	–	–
[2], x1 = 0.8865	–	–	–	1.43095	1.42822	1.42548	–	–	–
[2], x1 = 1	–	–	–	1.43167	1.4289	1.42612	–	–	–

CCCCCCn1cc[n+](C)c1.F[B-](F)(F)F [1-hexyl-3-methylimidazolium tetrafluoroborate] + C1COCCO1
Settings	mass density, 298.15 K [kg/m3]	mass density, 308.15 K [kg/m3]	mass density, 318.15 K [kg/m3]	refractive index, 298.15 K	refractive index, 308.15 K	refractive index, 318.15 K	speed of sound, 298.15 K [m/s]	speed of sound, 308.15 K [m/s]	speed of sound, 318.15 K [m/s]
[1], x1 = 0.0956	1060.24	1050.11	1040.21	–	–	–	1373.3	1332.3	1291
[1], x1 = 0.2039	1084.24	1074.91	1065.52	–	–	–	1403	1364.1	1324.8
[1], x1 = 0.2945	1098.98	1089.94	1081.15	–	–	–	1422	1384.1	1346.8
[1], x1 = 0.368	1107.75	1099.02	1090.42	–	–	–	1434	1398.1	1362.7
[1], x1 = 0.4876	1119.03	1110.69	1102.5	–	–	–	1450.5	1417.6	1384.3
[1], x1 = 0.5831	1125.92	1118.09	1110.2	–	–	–	1461	1430.1	1398.7
[1], x1 = 0.6816	1131.92	1124.09	1116.5	–	–	–	1470.5	1441.5	1412.2
[1], x1 = 0.7695	1136.19	1128.65	1121.26	–	–	–	1478.1	1450.5	1423.2
[1], x1 = 0.8594	1140.02	1132.69	1125.9	–	–	–	1485.9	1459.7	1433.3
[1], x1 = 1	1145.11	1137.71	1130.49	–	–	–	1496.7	1472	1447.7
[2], x1 = 0.0956	–	–	–	1.4241	1.42009	1.41587	–	–	–
[2], x1 = 0.2039	–	–	–	1.42717	1.42329	1.41958	–	–	–
[2], x1 = 0.2945	–	–	–	1.42874	1.42525	1.42174	–	–	–
[2], x1 = 0.368	–	–	–	1.42944	1.42625	1.42294	–	–	–
[2], x1 = 0.4876	–	–	–	1.43034	1.42727	1.42429	–	–	–
[2], x1 = 0.5831	–	–	–	1.43075	1.42802	1.42519	–	–	–
[2], x1 = 0.6816	–	–	–	1.43106	1.42839	1.42546	–	–	–
[2], x1 = 0.7695	–	–	–	1.43149	1.42861	1.42574	–	–	–
[2], x1 = 0.8594	–	–	–	1.43152	1.42868	1.42604	–	–	–
[2], x1 = 1	–	–	–	1.43167	1.4289	1.42612	–	–	–
